Literature values in patent US8216495B2, “Preparation method for solid dispersions” (Formac Pharmaceuticals N.V., priority 2008, dated 2012).
In brackets after ≈: the same amount, converted by molar mass.

Legend:
[1] = weak base
[2] = not given; remark: listed apart in the source

In the case of NC(=O)N1c2ccccc2C=Cc2ccccc21 [Carbamazepine, 5H-dibenz[b,f]azepine-5-carboxamide], the “solubility in alcohol and acetone” value (alcohol and acetone) is given as “soluble” and the solubility in water is given as “practically insoluble”.

In the case of CCC(C)n1ncn(-c2ccc(N3CCN(c4ccc(OCC5COC(Cn6cncn6)(c6ccc(Cl)cc6Cl)O5)cc4)CC3)cc2)c1=O (stereo not drawn) [Itraconazole], the aqueous solubility (pH=1) is given as 4 µg/mL (≈ 5.67 µM) and the pKa [1] is given as 4.0.

In the case of C#C[C@]1(O)CC[C@H]2[C@@H]3CCC4=Cc5oncc5C[C@]4(C)[C@H]3CC[C@@]21C [Danazol, 17a-Pregna-2,4-dien-20-yno[2,3-d]-isoxazol-17-ol], the half-life ([2]; danazol administered orally) is given as 4 to 5 h, the “increase in plasma concentration on doubling the dose” value ([2]; danazol administered orally) is given as 30-40% and the “time of peak concentrations” value ([2]; danazol administered orally) is given as no more than 2 h.

In the case of C=CC[C@@H]1/C=C(\C)C[C@H](C)C[C@H](OC)[C@H]2O[C@@](O)(C(=O)C(=O)N3CCCC[C@H]3C(=O)O[C@H](/C(C)=C/[C@@H]3CC[C@@H](O)[C@H](OC)C3)[C@H](C)[C@@H](O)CC1=O)[C@H](C)C[C@@H]2OC [Tacrolimus], the solubility in ethanol (ethanol) is given as “freely soluble”, the “solubility in methanol and chloroform” value (methanol and chloroform) is given as “very soluble” and the solubility in water is given as “practically insoluble”. The absolute bioavailability ([2]; 5 mg dose taken twice a day, oral) was “approximately 17%”.

In the case of CC(=O)O[C@H]1C(=O)[C@@]2(C)[C@H]([C@H](OC(=O)c3ccccc3)[C@]3(O)C[C@H](OC(=O)[C@H](O)[C@@H](NC(=O)c4ccccc4)c4ccccc4)C(C)=C1C3(C)C)[C@]1(OC(C)=O)CO[C@@H]1C[C@@H]2O [Paclitaxel], the solubility in water is given as “insoluble”.
